Laboratory results as given in ChEMBL document CHEMBL4622909, “PARP inhibitor cyanine dye conjugate with enhanced cytotoxic and antiproliferative activity in patient derived glioblastoma cell lines” (Bioorg Med Chem Lett, 2020).
The source made the active and inactive calls. No cut-off for these calls is given here.

Columns and labels:
[1] = tested on: GBM; test: Antiproliferative activity against human patient derived GBM cells assessed as reduction in cell proliferation up to 100 uM measured after 48 hrs by Edu incorporation assay; assay type: functional, cell-based
[2] = tested on: GBM; test: Cytotoxicity against human patient derived GBM cells assessed as reduction in cell viability measured after 48 hrs by Hoechst staining based assay; assay type: functional
[3] = tested on: GBM; test: Synergistic cytotoxicity against human patient derived GBM cells assessed as reduction in cell viability measured after 48 hrs in presence of temozolomide by Hoechst staining based assay; assay type: functional
[4] = tested on: GBM; test: Ratio of EC50 for cytotoxicity against human patient derived GBM assessed as reduction in cell viability measured after 48 hrs by Hoechst staining based assay to EC50 for synergistic cytotoxicity against human patient derived GBM assessed as reduction in cell viability measured after 48 hrs in presence of temozolomide by Hoechst staining based assay; assay type: functional
[5] = tested on: GBM; test: Antiproliferative activity against human patient derived GBM cells assessed as reduction in cell proliferation measured after 48 hrs by Edu incorporation assay; assay type: functional, cell-based
[6] = tested on: GBM; test: cells; assay type: functional, cell-based; details: Homo sapiens, 48 h
Description: Synergistic antiproliferative activity against human patient derived GBM cells assessed as reduction in cell proliferation measured after 48 hrs in presence of temozolomide by Edu incorporation assay

[7] = tested on: GBM; test: Potency index, ratio of rucaparib IC50 to test compound IC50 for human patient derived GBM cells assessed as reduction in cell viability measured after 48 hrs by Hoechst staining based assay; assay type: functional
[8] = tested on: GBM; test: Potency index, ratio of IR-786 IC50 to test compound IC50 for human patient derived GBM cells assessed as reduction in cell viability measured after 48 hrs by Hoechst staining based assay; assay type: functional
[9] = tested on: GBM; test: Potency index, ratio of IR-786 IC50 to test compound IC50 for synergistic cytotoxicity against human patient derived GBM cells assessed as reduction in cell viability measured after 48 hrs in presence of temozolomide by Hoechst staining based assay; assay type: functional
[10] = tested on: GBM; test: Antiproliferative activity against human patient derived GBM cells assessed as reduction in cell proliferation measured after 48 hrs by Edu incorporation assay relative to compound alone; assay type: functional

SMILES	Activity [1]	EC50 [2] [nM]	EC50 [3] [nM]	Ratio EC50 [4]	IC50 [5] [nM]	IC50 [6] [nM]	Ratio IC50 [7]	Ratio IC50 [8]	Ratio IC50 [9]	Ratio IC50 [10]
Cn1nnc2c(C(N)=O)ncn2c1=O	inactive	–	–	–	–	–	–	–	–	–
CN1/C(=C/C=C2\CCCC(/C=C/C3=[N+](C)c4ccccc4C3(C)C)=C2N2CCN(c3ccc(-c4[nH]c5cc(F)cc6c5c4CCNC6=O)cc3)CC2)C(C)(C)c2ccccc21.[I-]	–	128	56	2	21	20	780	13.5	7	2
CNCc1ccc(-c2[nH]c3cc(F)cc4c3c2CCNC4=O)cc1 [RUCAPARIB]	–	> 100000	> 100000	–	53400	2260	–	–	–	24
